From patent US20020137929A1, “1 - (3-heterocyclylphenyl) isothiourea, -isourea, -guanidine and -amidine herbicidal agents” (Intellectual Property Department, BASF Aktiengesellschaft, priority 1998, published 2002)

Columns and labels:
[1] = test system: ABUTH (Velvetleaf); assay: Postemergence herbicidal evaluation; type: in vivo, Abutilon theophrasti; conditions: postemergence
How it was run: (§1)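 ~2-wk seedlings; postemergence spray, 40 psi; vehicle 1:1 acetone:water + 0.5% Tween 20; rate ≈0.0156–0.500 kg/ha; greenhouse hold; scored 4–5 wk after treatment, 0–9 scale vs control; repeat tests averaged.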

[2] = test system: ABUTH (Velvetleaf); assay: Preemergence herbicidal evaluation; type: in vivo, Abutilon theophrasti; conditions: rated 4-5 weeks after treatment
How it was run: (§2)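 Scores use a 0–9 visual scale covering stand, vigor, malformation, size and chlorosis relative to controls, rated four to five weeks after treatment. Before emergence, soil-planted seeds were sprayed with compound in aqueous acetone at roughly 0.0156–0.500 kg/ha and held in the greenhouse.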

[3] = test system: TRZAWR (Wheat, Winter, cv Riband); assay: Postemergence herbicidal evaluation; type: in vivo, Triticum aestivum; conditions: postemergence
How it was run: as §1

[4] = test system: ECHCG (Barnyardgrass); assay: Postemergence herbicidal evaluation; type: in vivo, Echinochloa crus-galli; conditions: postemergence
How it was run: as §1

[5] = test system: SETVI (Foxtail, Green); assay: Postemergence herbicidal evaluation; type: in vivo, Setaria viridis; conditions: postemergence
How it was run: as §1

[6] = test system: ORYSAT (Rice, Tebonnet); assay: Postemergence herbicidal evaluation; type: in vivo, Oryza sativa, (L.) Tebonnet; conditions: postemergence
How it was run: as §1

[7] = test system: SETVI (Foxtail, Green); assay: Preemergence herbicidal evaluation; type: in vivo, Setaria viridis; conditions: rated 4-5 weeks after treatment
How it was run: as §2

[8] = test system: AMBEL (Ragweed, Common); assay: Postemergence herbicidal evaluation; type: in vivo, Ambrosia artemisifolia; conditions: postemergence
How it was run: as §1

[9] = test system: CASOB (Sicklepod); assay: Preemergence herbicidal evaluation; type: in vivo, Cassia obtusifolia; conditions: rated 4-5 weeks after treatment
How it was run: as §2

[10] = test system: MOOVA (Monochoria); assay: Preemergence weed control under flooded paddy conditions; type: in vivo, Monochoria vaginalis; conditions: rated 3-4 weeks after treatment
How it was run: (§3)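 Using flooded silt loam (water 1.5 to 3 cm deep), seeds sown in the top 0.5 cm were exposed preemergence to compound pipetted into the flood at about 0.0313 to 0.500 kg/ha. Effects were scored 0-9 by eye three to four weeks later.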

[11] = test system: SAGPY (Arrowhead (Pygmaea)); assay: as above; type: in vivo, Sagittaria pygmaea; conditions: rated 3-4 weeks after treatment
How it was run: as §3

[12] = test system: GLXMAW (Soybean, Williams); assay: Postemergence herbicidal evaluation; type: in vivo, Glycine max, (L.) Merr. cv Williams; conditions: postemergence
How it was run: as §1

With `CCOC(=O)CN1C(=O)C(CC(=O)O)SC1=Nc1cc(N2C(=O)CC(C(F)(F)F)CC2=O)c(F)cc1Cl` (centres unmarked) [Compound 170, 2-{{2-Chloro-5-[2,6-dioxo-4-(trifluoromethyl)-piperidino]-4-fluorophenyl}imino}-4-oxo-3,5-thiazolidinediacetic acid, 3-ethyl ester] the “Herbicidal rating ABUTH” value ([1]; rate 0.0156 kg/ha) was 9.0, the “Herbicidal rating ABUTH” value ([1]; rate 0.0313 kg/ha) was 9.0 and the “Herbicidal rating ABUTH” value ([1]; rate 0.0625 kg/ha) was 9.0. The “Preemergence herbicidal rating ABUTH” value ([2]; 0.0156 kg/ha) was 0.0, the “Preemergence herbicidal rating ABUTH” value ([2]; 0.0313 kg/ha) was 6.0 and the “Preemergence herbicidal rating ABUTH” value ([2]; 0.0625 kg/ha) was 9.0. For the same molecule, the “Preemergence herbicidal rating ABUTH” value ([2]; 0.1250 kg/ha) was 9.0, the “Preemergence herbicidal rating ABUTH” value ([2]; 0.2500 kg/ha) was 9.0 and the “Herbicidal rating TRZAWR” value ([3]; rate 0.0156 kg/ha) was 3.5. The “Herbicidal rating TRZAWR” value ([3]; rate 0.0313 kg/ha) was 4.0, the “Herbicidal rating TRZAWR” value ([3]; rate 0.0625 kg/ha) was 5.0 and the “Herbicidal rating ECHCG” value ([4]; rate 0.0156 kg/ha) was 1.0. For the same molecule, the “Herbicidal rating ECHCG” value ([4]; rate 0.0313 kg/ha) was 1.0, the “Herbicidal rating ECHCG” value ([4]; rate 0.0625 kg/ha) was 1.0 and the “Herbicidal rating SETVI” value ([5]; rate 0.0156 kg/ha) was 6.0. For the same molecule, the “Herbicidal rating SETVI” value ([5]; rate 0.0313 kg/ha) was 9.0, the “Herbicidal rating SETVI” value ([5]; rate 0.0625 kg/ha) was 9.0 and the “Herbicidal rating ORYSAT” value ([6]; rate 0.0156 kg/ha) was 2.0. The “Herbicidal rating ORYSAT” value ([6]; rate 0.0313 kg/ha) was 2.0, the “Herbicidal rating ORYSAT” value ([6]; rate 0.0625 kg/ha) was 2.5 and the “Preemergence herbicidal rating SETVI” value ([7]; 0.0156 kg/ha) was 9.0. The “Preemergence herbicidal rating SETVI” value ([7]; 0.0313 kg/ha) was 9.0, the “Preemergence herbicidal rating SETVI” value ([7]; 0.0625 kg/ha) was 9.0 and the “Preemergence herbicidal rating SETVI” value ([7]; 0.1250 kg/ha) was 9.0. For the same molecule, the “Preemergence herbicidal rating SETVI” value ([7]; 0.2500 kg/ha) was 9.0, the “Herbicidal rating AMBEL” value ([8]; rate 0.0156 kg/ha) was 9.0 and the “Herbicidal rating AMBEL” value ([8]; rate 0.0313 kg/ha) was 9.0. The “Herbicidal rating AMBEL” value ([8]; rate 0.0625 kg/ha) was 9.0, the “Preemergence herbicidal rating CASOB” value ([9]; 0.0156 kg/ha) was 0.0 and the “Preemergence herbicidal rating CASOB” value ([9]; 0.0313 kg/ha) was 0.0. The “Preemergence herbicidal rating CASOB” value ([9]; 0.0625 kg/ha) was 0.0, the “Preemergence herbicidal rating CASOB” value ([9]; 0.1250 kg/ha) was 3.0 and the “Preemergence herbicidal rating CASOB” value ([9]; 0.2500 kg/ha) was 3.0. The “herbicidal effect rating, MOOVA” value ([10]; 0.0313 kg/ha) was 9.0, the “herbicidal effect rating, MOOVA” value ([10]; 0.0625 kg/ha) was 9.0 and the “herbicidal effect rating, MOOVA” value ([10]; 0.1250 kg/ha) was 9.0. For the same molecule, the “herbicidal effect rating, MOOVA” value ([10]; 0.2500 kg/ha) was 9.0, the “herbicidal effect rating, SAGPY” value ([11]; 0.0313 kg/ha) was 5.0 and the “herbicidal effect rating, SAGPY” value ([11]; 0.0625 kg/ha) was 9.0. The “herbicidal effect rating, SAGPY” value ([11]; 0.1250 kg/ha) was 8.0, the “herbicidal effect rating, SAGPY” value ([11]; 0.2500 kg/ha) was 9.0 and the “Herbicidal rating GLXMAW” value ([12]; rate 0.0156 kg/ha) was 7.5. The “Herbicidal rating GLXMAW” value ([12]; rate 0.0313 kg/ha) was 7.5 and the “Herbicidal rating GLXMAW” value ([12]; rate 0.0625 kg/ha) was 7.5.
